As a reminder, the IC50 is the midpoint of a concentration-inhibition curve. A high value points to weaker potency.

From patent US8772290B2, “Alpha-arylmethoxyacrylate derivative, preparation method thereof, and pharmaceutical composition containing same” (Oscotech Inc., priority 2010, dated 2014) come the findings set out here.

This experiment concerns HIF. Briefly: Assay for inhibitory activity against HIF activity (HIF1 luciferase reporter cell line). The class given is cell-based, human. The following applies: HEK293 HIF1 reporter cell line, 1% oxygen, 6 hours, luciferase activity 50% inhibited. From the text:
In order to assay the compounds of the present invention for inhibitory activity against HIF activity, the HIF1 reporter plasmid (Panomics) that is designed to control the expression of luciferase by HIF was employed. The HIF1 reporter plasmid and the pTK-Hyg plasmid (Clontech), which carries a hygromycin resistant gene, were co-transfected into the HEK293 cell line (the Korean Cell Line Bank, KCLB No. 21573), derived from the human kidney, with the aid of Effectene transfection reagent (Qiagen). Then, the cells were cultured for 3 weeks on a medium containing 200 μg/mL hygromycin to select transformants resistant to hygromycin. The cell colonies derived from single cells were transferred to 24-well plates to secure a reporter cell line. The cells were seeded at a density of 4×10^4 cells/well into 96-well plates containing DMEM and incubated for 24 hours before treatment with the compounds of the present invention at a concentration of 25 μM, 5 μM, 1 μM, 200 nM, 40 nM, 8 nM, 1.6 nM, 320 pM, 64 pM, 12.8 pM, 2.56 pM, 512 fM, 102 fM, 20.4 fM, or an amount between any two concentrations above as shown in FIGS. 1A to 1C. Under 1% oxygen condition, the cells were incubated for 6 hours and then, the medium was removed. The cells were lyzed by incubation for 5 min with 100 μL of the mixture of Bright-Glo™ luciferase assay buffer and Bright-Glo™ luciferase assay substrate (Promega). The whole cell lysate was transferred to 96-well, white plates (PerkinElmer) and measured for luminescence using Victor™ 3 (PerkinElmer). From the luminescence measurements, IC50 (a concentration of the compound at which luciferase activity was 50% inhibited) was calculated using the GraphPad Prism™ 4 program. The results are summarized in Table 2 and illustrated in FIGS. 1A to 1C.
For orientation: A reporter such as luciferase makes a cellular process visible.

As to `CO/C=C(/C(=O)OC)c1ccccc1COc1cc(/C(C)=N/OCCc2ccccc2)ccc1OC` [Compound 44, (E)-methyl 2-(2-((2-methoxy-5-((E)-1-(phenylethoxyimino)ethyl)-phenoxy)methyl)phenyl)-3-methoxyacrylate], half-maximal inhibition (Homo sapiens) (IC50) was put at 2180 nM. With `CO/C=C(/C(=O)OC)c1ccccc1COc1cc(F)cc(OCc2ccccn2)c1` [Compound 23, (E)-methyl 2-(2-((3-fluoro-5-(pyridin-2-ylmethoxy)phenoxy)methyl)-phenyl)-3-methoxyacrylate], the IC50 (Homo sapiens) was 230 nM. `CCCO/N=C(\CC)c1cccc(OCc2ccccc2/C(=C\OC)C(=O)OC)c1` [Compound 7, (E)-methyl 2-(2-((3-((E)-1-(propoxyimino)propyl)phenoxy)methyl)-phenyl)-3-methoxyacrylate] registered an IC50 (Homo sapiens) of 5070 nM. `CO/C=C(/C(=O)OC)c1ccccc1COc1cc(C)c(/C=N/OCc2cccc(OC)c2)cc1C` [Compound 72, (E)-methyl 2-(2-((4-((E)-(3-methoxybenzyloxyimino)methyl)-2,5-dimethylphenoxy)methyl)phenyl)-3-methoxyacrylate]: the IC50 (Homo sapiens) came to 180 nM.

For the compound `CO/C=C(/C(=O)OC)c1ccccc1COc1cccc(OCc2ccccc2)c1` [Compound 3, (E)-methyl 2-(2-((3-(benzyloxy)phenoxy)methyl)phenyl)-3-methoxyacrylate], the IC50 (Homo sapiens) was found to be 50 nM. Compared with the last compound, the IC50 is about 3.6-fold lower. For `CO/C=C(/C(=O)OC)c1ccccc1COc1cc(C)c(/C=N/Oc2ccccc2)cc1C` [Compound 63, (E)-methyl 2-(2-((2,5-dimethyl-4-((E)-(phenoxyimino)methyl)phenoxy)-methyl)phenyl)-3-methoxyacrylate], the IC50 (Homo sapiens) came to 40 nM. The same measure, in the same setting: to `CO/C=C(/C(=O)OC)c1ccccc1COc1ccc(F)c(OCc2ccccc2)c1F` [Compound 62, (E)-methyl 2-(2-((3-(benzyloxy)-2,4-difluorophenoxy)methyl)phenyl)-3-methoxyacrylate] belongs 200 nM; to `CO/C=C(/C(=O)OC)c1ccccc1COc1cc(O)cc(OCc2ccncc2)c1` [Compound 29, (E)-methyl 2-(2-((3-hydroxy-5-(pyridin-4-ylmethoxy)phenoxy)methyl)-phenyl)-3-methoxyacrylate], 11000 nM. Still for that read-out and setting: then `CO/C=C(/C(=O)OC)c1ccccc1COc1cccc(/C=N/OCCN2CCCCC2)c1` [Compound 10, (E)-methyl 3-methoxy-2-(2-((3-((E)-(2-(piperidin-1-yl)ethoxyimino)methyl)phenoxy)methyl)phenyl)acrylate], with 7070 nM; and `CO/C=C(/C(=O)OC)c1ccccc1COc1cc(C)c(/C(C)=N/OCc2ccccn2)cc1C` [Compound 79, (E)-methyl 2-(2-((2,5-dimethyl-4-((E)-1-(pyridin-2-ylmethoxyimino)-ethyl)phenoxy)methyl)phenyl)-3-methoxyacrylate], with 61 nM; and `CO/C=C(/C(=O)OC)c1ccccc1COc1ccc(/C(C)=N/OCc2ccccc2)cc1` [Compound 17, (E)-methyl 2-(2-((4-((E)-1-(benzyloxyimino)ethyl)phenoxy)methyl)-phenyl)-3-methoxyacrylate], with 370 nM. For the compound `CO/C=C(/C(=O)OC)c1ccccc1COc1cccc(OCc2ccncc2)c1` [Compound 27, (E)-methyl 2-(2-((3-(pyridin-4-ylmethoxy)phenoxy)methyl)phenyl)-3-methoxyacrylate], it took 340 nM to reach half-maximal inhibition (Homo sapiens) (IC50). “(E)-methyl 2-(2-((3-hydroxy-5-(2-phenoxyethoxy)phenoxy)methyl)-phenyl)-3-methoxyacrylate [Compound 20]” registered an IC50 of 6060 nM. Under “Homo sapiens”, `CO/C=C(/C(=O)OC)c1ccccc1COc1ccc(/C=N/O)cc1C` [Compound 31, (E)-methyl 2-(2-((4-((E)-(hydroxyimino)methyl)-2-methylphenoxy)-methyl)phenyl)-3-methoxyacrylate] gave an IC50 of 1730 nM.

In turn, `CO/C=C(/C(=O)OC)c1ccccc1COc1cccc(/C=N/N2CCOCC2)c1` [Compound 25, (E)-methyl 3-methoxy-2-(2-((3-((E)-(morpholinoimino)methyl)phenoxy)-methyl)phenyl)acrylate] gave an IC50 (Homo sapiens) of 440 nM.

The compound `CO/C=C(/C(=O)OC)c1ccccc1COc1ccc(/C=N/OCC2CC2)cc1C` [Compound 67, (E)-methyl 2-(2-((4-((E)-(cyclopropylmethoxyimino)methyl)-2-methylphenoxy)methyl)phenyl)-3-methoxyacrylate] had an IC50 (Homo sapiens) of 60 nM. The same measure, in the same setting: to `CCCO/N=C/c1cc(C)c(OCc2ccccc2/C(=C\OC)C(=O)OC)cc1C` [Compound 49, (E)-methyl 2-(2-((2,5-dimethyl-4-((E)-(propoxyimino)methyl)phenoxy)-methyl)phenyl)-3-methoxyacrylate] belongs 10 nM; to `CO/C=C(/C(=O)OC)c1ccccc1COc1cc(/C=N/OCc2ccccc2)ccc1OC` [Compound 39, (E)-methyl 2-(2-((5-((E)-(benzyloxyimino)methyl)-2-methoxyphenoxy)-methyl)phenyl)-3-methoxyacrylate], 1410 nM.

In turn, `CO/C=C(/C(=O)OC)c1ccccc1COc1cc(F)cc(OCCOc2ccccc2)c1` [Compound 22, (E)-methyl 2-(2-((3-fluoro-5-(2-phenoxyethoxy)phenoxy)methyl)phenyl)-3-methoxyacrylate] came in with an IC50 (Homo sapiens) of 260 nM. Compared with the last compound, the IC50 is about 5.4-fold lower. `CO/C=C(/C(=O)OC)c1ccccc1COc1cccc(O)c1` [Compound 5, (E)-methyl 2-(2-((5-hydroxyphenoxy)methyl)phenyl)-3-methoxyacrylate] displayed an IC50 (Homo sapiens) of 1990 nM.

For `CCCOc1c(F)ccc(OCc2ccccc2/C(=C\OC)C(=O)OC)c1F` [Compound 65, (E)-methyl 2-(2-((2,4-difluoro-3-propoxyphenoxy)methyl)phenyl)-3-methoxyacrylate], where the note is “Homo sapiens”, the 50% inhibitory concentration (IC50) came out at 1000 nM. Compound `CO/C=C(/C(=O)OC)c1ccccc1COc1cccc(OCCO)c1` [Compound 12, (E)-methyl 2-(2-((3-(2-hydroxyethoxy)phenoxy)methyl)phenyl)-3-methoxyacrylate] showed an IC50 (Homo sapiens) of 5990 nM. This IC50 is about 6-fold higher than that of the compound before. Consider `CO/C=C(/C(=O)OC)c1ccccc1COc1cccc(OCCN2CCOCC2)c1` [Compound 76, (E)-methyl 2-(2-((3-(2-morpholinoethoxy)phenoxy)methyl)phenyl)-3-methoxyacrylate], for which the midpoint of inhibition (Homo sapiens), the IC50, lay at 1500 nM. This IC50 is about 4-fold lower than that of the compound before.

In turn, `CC/C(=N\N1CCOCC1)c1cc(C)c(OCc2ccccc2/C(=C\OC)C(=O)OC)cc1C` [Compound 30, (E)-methyl 2-(2-((2,5-dimethyl-4-((E)-1-(morpholinoimino)propyl)-phenoxy)methyl)phenyl)-3-methoxyacrylate] came in with an IC50 (Homo sapiens) of 4140 nM. Still for that read-out and setting: to `CCCOc1cc(C)cc(OCc2ccccc2/C(=C\OC)C(=O)OC)c1C` [Compound 40, (E)-methyl 2-(2-((2,5-dimethyl-3-propoxyphenoxy)methyl)phenyl)-3-methoxyacrylate] belongs 12600 nM; to `CO/C=C(/C(=O)OC)c1ccccc1COc1ccc(/C=N/OCc2ccc(C)cc2)cc1C` [Compound 60, (E)-methyl 2-(2-((2-methyl-4-((E)-(4-methylbenzyloxyimino)methyl)-phenoxy)methyl)phenyl)-3-methoxyacrylate], 110 nM; to `CO/C=C(/C(=O)OC)c1ccccc1COc1ccc(/C=N/OCc2ccccc2)cc1C` [Compound 33, (E)-methyl 2-(2-((4-((E)-(benzyloxyimino)methyl)-2-methylphenoxy)-methyl)phenyl)-3-methoxyacrylate], 210 nM.
